# Data reported in patent publication US10472381B2, “Sialic acid derivatives” (Reinhard Brossmer, priority 2014, dated 2019).
# Target: T1, CD22 (Homo sapiens, UniProt P20273)
# T1 construct: The soluble CD22 protein was expressed in the CHO-Lec1 cell line; made in house; host or cells: CHO-Lec1
# T1 sequence (P20273 20-687 limits assumed): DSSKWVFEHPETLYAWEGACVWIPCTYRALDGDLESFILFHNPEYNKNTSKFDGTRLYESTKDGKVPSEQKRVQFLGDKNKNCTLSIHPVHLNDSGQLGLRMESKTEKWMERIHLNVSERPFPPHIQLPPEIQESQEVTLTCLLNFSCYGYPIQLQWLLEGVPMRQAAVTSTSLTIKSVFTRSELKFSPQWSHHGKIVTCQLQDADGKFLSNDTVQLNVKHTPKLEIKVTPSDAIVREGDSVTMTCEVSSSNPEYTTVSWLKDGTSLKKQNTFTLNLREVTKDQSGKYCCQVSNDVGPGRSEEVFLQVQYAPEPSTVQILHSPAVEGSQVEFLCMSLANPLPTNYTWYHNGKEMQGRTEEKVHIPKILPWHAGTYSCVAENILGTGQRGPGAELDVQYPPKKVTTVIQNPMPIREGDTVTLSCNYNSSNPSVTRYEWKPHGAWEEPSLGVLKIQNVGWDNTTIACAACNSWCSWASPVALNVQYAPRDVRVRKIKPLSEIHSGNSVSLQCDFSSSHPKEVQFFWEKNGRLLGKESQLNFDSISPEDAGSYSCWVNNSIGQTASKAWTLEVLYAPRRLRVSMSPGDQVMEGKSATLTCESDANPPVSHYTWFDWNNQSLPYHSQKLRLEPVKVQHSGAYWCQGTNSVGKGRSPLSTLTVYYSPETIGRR
# Experiment: ELISA-based inhibition assay: inhibition of binding of soluble CD22 to immobilized IgM
# Details: Table II; relative to reference compound 10 co-tested in the same assay (rIP = 1)
# Procedure: The biological activity of the substances was determined in an ELISA-based inhibition assay as described in “Eur. J. Immunol. 2012, 42, 2792-2802”. The sialic acid derivatives of the formula (I) inhibit the binding of soluble CD22 to immobilized IgM in proportion to their affinity for CD22. The soluble CD22 protein was expressed in the CHO-Lec1 cell line and isolated as described by “Eur. J. Immunol. 2012, 42, 2792-2802”. […] The increase in affinity is reported as rIP (relative inhibitory affinity).
row,Structure (SMILES),rIP
1,CC(=O)N[C@@H]1[C@@H](NS(=O)(=O)c2cccc3c(N(C)C)cccc23)[C@H](O)[C@](OCCCCCC(=O)[O-])(C(=O)[O-])O[C@H]1[C@H](O)[C@H](O)CNC(=O)c1ccc(-c2ccccc2)cc1.[Na+].[Na+] [Compound 65],0.17

# Same assay, conditions: Table III; relative to reference compound 17 co-tested in the same assay (rIP = 1)
row,Structure (SMILES),rIP
1,CC(=O)N[C@H]1[C@H]([C@H](O)[C@H](O)CNC(=O)c2ccc(-c3ccccc3)cc2)O[C@@](OCCCCCC(=O)[O-])(C(=O)[O-])C[C@@H]1NC(=O)c1ccc(C(F)(F)F)cc1.[Na+].[Na+] [Compound 64],1.2
2,CC(=O)N[C@H]1[C@H]([C@H](O)[C@H](O)CNC(=O)c2ccc(-c3ccccc3)cc2)O[C@@](OCCCCCC(=O)[O-])(C(=O)[O-])C[C@@H]1NC(=O)OCc1ccccc1.[Na+].[Na+] [Compound 66],1.3

# Same assay, conditions: Table IV; relative to reference compound 66 co-tested in the same assay (rIP = 1)
row,Structure (SMILES),rIP
1,CC(=O)N[C@H]1[C@H]([C@H](O)[C@H](O)CNC(=O)c2ccc(-c3ccccc3)cc2)O[C@@](OCCCCCC(=O)[O-])(C(=O)[O-])C[C@@H]1NC(=O)OCc1ccccc1.[Na+].[Na+] [Compound 66],1
2,CC(=O)N[C@H]1[C@H]([C@H](O)[C@H](O)CNC(=O)c2ccc(-c3ccc(O)cc3)cc2)O[C@@](OCCCCCC(=O)[O-])(C(=O)[O-])C[C@@H]1NC(=O)OCc1ccccc1.[Na+].[Na+] [Compound 67],1.0
3,CC(=O)N[C@H]1[C@H]([C@H](O)[C@H](O)CNC(=O)c2ccc(-c3ccccc3F)cc2)O[C@@](OCCCCCC(=O)[O-])(C(=O)[O-])C[C@@H]1NC(=O)OCc1ccccc1.[Na+].[Na+] [Compound 68],0.76
4,COc1ccccc1-c1ccc(C(=O)NC[C@@H](O)[C@@H](O)[C@@H]2O[C@@](OCCCCCC(=O)[O-])(C(=O)[O-])C[C@H](NC(=O)OCc3ccccc3)[C@H]2NC(C)=O)cc1.[Na+].[Na+] [Compound 69],0.83
5,CC(=O)N[C@H]1[C@H]([C@H](O)[C@H](O)CNC(=O)c2ccc(-c3cccs3)cc2)O[C@@](OCCCCCC(=O)[O-])(C(=O)[O-])C[C@@H]1NC(=O)OCc1ccccc1.[Na+].[Na+] [Compound 70],0.88
6,CC(=O)N[C@H]1[C@H]([C@H](O)[C@H](O)CNC(=O)c2ccc(-c3cccs3)s2)O[C@@](OCCCCCC(=O)[O-])(C(=O)[O-])C[C@@H]1NC(=O)OCc1ccccc1.[Na+].[Na+] [Compound 71],0.28
7,CC(=O)N[C@H]1[C@H]([C@H](O)[C@H](O)CNC(=O)Cc2ccc3ccccc3c2)O[C@@](OCCCCCC(=O)[O-])(C(=O)[O-])C[C@@H]1NC(=O)OCc1ccccc1.[Na+].[Na+] [Compound 72],0.91
8,CC(=O)N[C@H]1[C@H]([C@H](O)[C@H](O)CNC(=O)c2cnc(-c3ccccc3)nc2)O[C@@](OCCCCCC(=O)[O-])(C(=O)[O-])C[C@@H]1NC(=O)OCc1ccccc1.[Na+].[Na+] [Compound 73],0.23
9,CC(=O)N[C@H]1[C@H]([C@H](O)[C@H](O)CNC(=O)c2ccc(-c3ccccc3)nc2)O[C@@](OCCCCCC(=O)[O-])(C(=O)[O-])C[C@@H]1NC(=O)OCc1ccccc1.[Na+].[Na+] [Compound 74],0.20
10,CC(=O)N[C@H]1[C@H]([C@H](O)[C@H](O)CNC(=O)c2ccc(Oc3ccccc3)cc2)O[C@@](OCCCCCC(=O)[O-])(C(=O)[O-])C[C@@H]1NC(=O)OCc1ccccc1.[Na+].[Na+] [Compound 75],0.25
11,CC(=O)N[C@H]1[C@H]([C@H](O)[C@H](O)CNC(=O)c2cccc3ccccc23)O[C@@](OCCCCCC(=O)[O-])(C(=O)[O-])C[C@@H]1NC(=O)OCc1ccccc1.[Na+].[Na+] [Compound 76],0.35
